Reference: PMC9181188 (International Journal of Molecular Sciences, 2022)
≈ marks a conversion by molar mass, not a printed value. Where two headings read alike, the source gives them in different places.

Key:
SW480 cells = assay: MTT assay, SW480; type: cell-based, human; conditions: for IC50: Homo sapiens, SW480, 72 h, human primary colon cancer, 72 h, MTT, mean ± SD; for SI SW480: SI = IC50 for normal cell line (HaCaT)/IC50 cancer cell line
SW620 cells = assay: MTT assay, SW620; type: cell-based, human; conditions: for IC50: Homo sapiens, SW-620, 72 h, human metastatic colon cancer, 72 h, MTT, mean ± SD; for SI SW620: SI = IC50 for normal cell line (HaCaT)/IC50 cancer cell line
PC3 cells = assay: MTT assay, PC3; type: cell-based, human; conditions: for IC50: Homo sapiens, PC-3, 72 h, human metastatic prostate cancer, 72 h, MTT, mean ± SD; for SI PC3: SI = IC50 for normal cell line (HaCaT)/IC50 cancer cell line
HaCaT cells = assay: MTT assay, HaCaT normal cells; type: cell-based; conditions: human immortal keratinocyte cell line, 72 h, mean ± SD
S. aureus NCTC 4163 = assay: MIC, twofold microdilution, standard strain; type: cell-based; conditions: Staphylococcus aureus, NCTC4163; 18 h of treatment; read-out: MIC S. aureus NCTC 4163
S. aureus ATCC 25923 = assay: MIC, twofold microdilution, standard strain; type: cell-based; conditions: Staphylococcus aureus, ATCC25923; 18 h of treatment; read-out: MIC S. aureus ATCC 25923
S. aureus ATCC 6538 = assay: MIC, twofold microdilution, standard strain; type: cell-based; conditions: Staphylococcus aureus, ATCC6538; 18 h of treatment; read-out: MIC S. aureus ATCC 6538
S. aureus ATCC 29213 = assay: MIC, twofold microdilution, standard strain; type: cell-based; conditions: Staphylococcus aureus, ATCC29213; 18 h of treatment; read-out: MIC S. aureus ATCC 29213
[1] = system: S. epidermidis ATCC 12228; assay: MIC, twofold microdilution, standard strain; type: cell-based; conditions: Staphylococcus epidermidis, ATCC12228; 18 h of treatment; read-out: MIC S. epidermidis ATCC 12228
[2] = system: S. epidermidis ATCC 35984; assay: MIC, twofold microdilution, standard strain; type: cell-based; conditions: Staphylococcus epidermidis, ATCC35984; 18 h of treatment; read-out: MIC S. epidermidis ATCC 35984
E. coli ATCC 25922 = assay: MIC, twofold microdilution, standard strain; type: cell-based, Escherichia coli; conditions: Escherichia coli, ATCC25922, 18 h, read-out: MIC E. coli ATCC 25922
P. aeruginosa ATCC 27853 = assay: MIC, twofold microdilution, standard strain; type: cell-based; conditions: Pseudomonas aeruginosa, ATCC27853; 18 h of treatment; read-out: MIC P. aeruginosa ATCC 27853
[3] = system: S. epidermidis KR 4047 825/19; assay: MIC, clinical S. epidermidis strain; type: cell-based; conditions: Staphylococcus epidermidis, KR4047825/19, quinolone-resistant, 18 h of treatment
[4] = system: S. epidermidis KR 4243 829/19; assay: MIC, clinical S. epidermidis strain; type: cell-based; conditions: Staphylococcus epidermidis, KR4243829/19, quinolone-susceptible, 18 h of treatment
[5] = system: S. epidermidis KR 4313 834/19; assay: MIC, clinical S. epidermidis strain; type: cell-based; conditions: Staphylococcus epidermidis, KR4313834/19, quinolone-susceptible, 18 h of treatment
[6] = system: S. epidermidis KR 4358/2 840/19; assay: MIC, clinical S. epidermidis strain; type: cell-based; conditions: Staphylococcus epidermidis, KR4358/2840/19; clinical S. epidermidis, quinolone-susceptible, 18 h of treatment; read-out: MIC KR 4358/2 840/19
[7] = system: S. epidermidis T 5253 845/19; assay: MIC, clinical S. epidermidis strain; type: cell-based; conditions: Staphylococcus epidermidis, T5253845/19, quinolone-resistant, 18 h of treatment
[8] = system: S. epidermidis T 5399 848/19; assay: MIC, clinical S. epidermidis strain; type: cell-based; conditions: Staphylococcus epidermidis, T5399848/19, quinolone-susceptible, 18 h of treatment
[9] = system: S. epidermidis T 5501 851/19; assay: MIC, clinical S. epidermidis strain; type: cell-based; conditions: Staphylococcus epidermidis, T5501851/19, read-out: MIC T 5501 851/19, quinolone-susceptible, 18 h of treatment
M. tuberculosis H37Rv = assay: MABA (microplate Alamar blue assay) MIC; type: cell-based; conditions: Mycobacterium tuberculosis, 336 h, read-out: MIC M. tuberculosis H37Rv
[10] = system: M. tuberculosis Spec. 192 (Sensitive to Tuberculostatics); assay: MABA (microplate Alamar blue assay) MIC; type: cell-based; conditions: Mycobacterium tuberculosis, 336 h, read-out: MIC M. tuberculosis Spec. 192 (Sensitive to Tuberculostatics)
[11] = target: T1, S. aureus topoisomerase IV (Staphylococcus aureus, UniProt P0C1S7+P0C1U9); assay: S. aureus topoisomerase IV decatenation assay; type: biochemical
T1 construct: purchased Inspiralis
Description: The assay was performed using S. aureus topoisomerase IV […] kit (Inspiralis). Kinetoplast DNA (kDNA) was the substrate for topoisomerase IV.

[12] = system: standard staphylococci (S. aureus, S. epidermidis); assay: MIC, standard Gram-positive strains as a group; type: cell-based; conditions: Staphylococcus aureus; range over standard Gram-positive strains; read-out: MIC against standard staphylococci
M. tuberculosis strains = assay: MABA MIC, mycobacterial strains as a group; type: cell-based; conditions: Mycobacterium tuberculosis, read-out: MIC antimycobacterial (strain not specified)
S. aureus DNA gyrase = S. aureus DNA gyrase (Staphylococcus aureus, UniProt P0A0K8+P20831); assay: biochemical
S. aureus DNA gyrase, sequence (P20831 whole entry): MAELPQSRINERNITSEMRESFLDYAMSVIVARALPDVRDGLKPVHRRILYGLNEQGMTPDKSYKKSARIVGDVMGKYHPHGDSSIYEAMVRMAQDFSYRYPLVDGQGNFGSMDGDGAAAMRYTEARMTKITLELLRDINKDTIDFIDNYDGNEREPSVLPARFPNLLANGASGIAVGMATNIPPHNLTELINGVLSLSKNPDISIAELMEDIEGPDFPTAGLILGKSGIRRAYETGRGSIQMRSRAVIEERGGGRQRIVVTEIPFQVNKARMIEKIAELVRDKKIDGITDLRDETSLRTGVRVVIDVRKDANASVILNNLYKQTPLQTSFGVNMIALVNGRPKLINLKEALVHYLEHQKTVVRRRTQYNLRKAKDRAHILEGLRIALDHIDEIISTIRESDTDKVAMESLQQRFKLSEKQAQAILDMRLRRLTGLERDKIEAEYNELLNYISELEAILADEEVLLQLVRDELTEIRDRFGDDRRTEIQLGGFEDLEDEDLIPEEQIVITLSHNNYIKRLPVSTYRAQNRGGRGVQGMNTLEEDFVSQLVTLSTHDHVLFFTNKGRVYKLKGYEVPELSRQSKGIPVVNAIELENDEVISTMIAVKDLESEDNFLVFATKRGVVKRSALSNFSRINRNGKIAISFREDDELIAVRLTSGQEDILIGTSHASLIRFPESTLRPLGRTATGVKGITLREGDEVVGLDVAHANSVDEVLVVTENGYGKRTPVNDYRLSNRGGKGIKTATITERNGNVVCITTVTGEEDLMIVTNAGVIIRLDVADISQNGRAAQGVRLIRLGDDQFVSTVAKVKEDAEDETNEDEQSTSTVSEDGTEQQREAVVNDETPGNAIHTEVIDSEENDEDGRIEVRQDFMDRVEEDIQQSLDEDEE
S. aureus DNA gyrase, sequence (P0A0K8 whole entry): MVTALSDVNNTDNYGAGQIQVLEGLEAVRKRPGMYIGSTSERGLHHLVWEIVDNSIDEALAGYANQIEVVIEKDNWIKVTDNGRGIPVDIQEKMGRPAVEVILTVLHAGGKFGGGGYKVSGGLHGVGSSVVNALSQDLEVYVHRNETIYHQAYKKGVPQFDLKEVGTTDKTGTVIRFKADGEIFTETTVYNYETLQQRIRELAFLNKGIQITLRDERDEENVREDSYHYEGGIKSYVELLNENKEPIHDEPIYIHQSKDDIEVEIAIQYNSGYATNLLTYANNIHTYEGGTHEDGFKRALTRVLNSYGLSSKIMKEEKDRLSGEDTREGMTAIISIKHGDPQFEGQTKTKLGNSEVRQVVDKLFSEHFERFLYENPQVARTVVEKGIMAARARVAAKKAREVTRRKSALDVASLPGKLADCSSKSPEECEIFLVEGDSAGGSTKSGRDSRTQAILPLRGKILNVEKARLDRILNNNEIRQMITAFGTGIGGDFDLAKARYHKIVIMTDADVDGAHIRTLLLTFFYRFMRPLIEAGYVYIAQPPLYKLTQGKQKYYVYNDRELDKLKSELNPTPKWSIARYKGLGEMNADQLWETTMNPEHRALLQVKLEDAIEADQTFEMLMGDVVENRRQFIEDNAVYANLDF

T1 sequence (P0C1U9 whole entry): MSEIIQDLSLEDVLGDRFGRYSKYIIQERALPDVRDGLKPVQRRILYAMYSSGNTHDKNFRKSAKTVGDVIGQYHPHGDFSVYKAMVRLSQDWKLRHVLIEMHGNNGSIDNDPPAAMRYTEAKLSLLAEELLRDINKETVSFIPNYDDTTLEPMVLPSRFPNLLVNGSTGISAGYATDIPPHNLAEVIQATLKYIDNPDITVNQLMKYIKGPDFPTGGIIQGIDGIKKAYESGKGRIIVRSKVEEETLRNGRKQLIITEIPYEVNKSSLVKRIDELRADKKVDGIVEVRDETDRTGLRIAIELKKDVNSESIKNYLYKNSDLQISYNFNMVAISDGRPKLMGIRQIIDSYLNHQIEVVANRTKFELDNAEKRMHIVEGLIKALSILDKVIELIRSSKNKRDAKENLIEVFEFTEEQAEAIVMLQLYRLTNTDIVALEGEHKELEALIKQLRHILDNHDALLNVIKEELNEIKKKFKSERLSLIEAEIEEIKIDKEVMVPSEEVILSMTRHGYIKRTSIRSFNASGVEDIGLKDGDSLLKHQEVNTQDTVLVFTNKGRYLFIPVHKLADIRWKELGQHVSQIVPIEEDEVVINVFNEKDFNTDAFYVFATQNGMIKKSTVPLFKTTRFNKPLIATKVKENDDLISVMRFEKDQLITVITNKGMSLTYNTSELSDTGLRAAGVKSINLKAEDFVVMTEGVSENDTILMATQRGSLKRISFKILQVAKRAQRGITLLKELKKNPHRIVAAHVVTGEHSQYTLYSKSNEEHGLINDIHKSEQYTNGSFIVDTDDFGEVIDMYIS
T1 sequence (P0C1S7 whole entry): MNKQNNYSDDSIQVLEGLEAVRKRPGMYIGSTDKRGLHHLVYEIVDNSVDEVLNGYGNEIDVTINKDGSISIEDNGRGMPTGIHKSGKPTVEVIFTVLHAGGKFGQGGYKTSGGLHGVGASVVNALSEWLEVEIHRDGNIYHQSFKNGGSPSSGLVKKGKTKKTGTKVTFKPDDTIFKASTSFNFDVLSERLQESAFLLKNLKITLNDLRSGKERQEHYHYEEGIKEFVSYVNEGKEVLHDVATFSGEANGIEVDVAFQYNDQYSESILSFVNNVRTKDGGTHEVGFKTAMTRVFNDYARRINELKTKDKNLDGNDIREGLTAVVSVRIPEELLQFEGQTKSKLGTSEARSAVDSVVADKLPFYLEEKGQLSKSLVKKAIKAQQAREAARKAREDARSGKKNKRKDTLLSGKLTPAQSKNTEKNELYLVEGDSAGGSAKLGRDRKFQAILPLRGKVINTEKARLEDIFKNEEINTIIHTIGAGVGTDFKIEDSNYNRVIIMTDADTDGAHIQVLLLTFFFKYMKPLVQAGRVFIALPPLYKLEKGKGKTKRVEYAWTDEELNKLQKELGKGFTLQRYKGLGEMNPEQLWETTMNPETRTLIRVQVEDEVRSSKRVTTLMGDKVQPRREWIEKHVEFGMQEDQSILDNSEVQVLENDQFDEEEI

| SMILES | IC50 (SW480 cells) [µM] | SI SW480 (SW480 cells) | IC50 (SW620 cells) [µM] | SI SW620 (SW620 cells) | IC50 (PC3 cells) [µM] | SI PC3 (PC3 cells) | IC50 (HaCaT cells) [µM] | MIC (S. aureus NCTC 4163) [µg/mL] | MIC (S. aureus ATCC 25923) [µg/mL] | MIC (S. aureus ATCC 6538) [µg/mL] | MIC (S. aureus ATCC 29213) [µg/mL] | MIC [1] [µg/mL] | MIC [2] [µg/mL] | MIC (E. coli ATCC 25922) [µg/mL] | MIC (P. aeruginosa ATCC 27853) [µg/mL] | MIC [3] [µg/mL] | MIC [4] [µg/mL] | MIC [5] [µg/mL] | MIC [6] [µg/mL] | MIC [7] [µg/mL] | other results |
| --- | --- | --- | --- | --- | --- | --- | --- | --- | --- | --- | --- | --- | --- | --- | --- | --- | --- | --- | --- | --- | --- |
| COc1c(N2CC3CCCN(C(=O)/C=C(\C)CCC=C(C)C)C3C2)c(F)cc2c(=O)c(C(=O)O)cn(C3CC3)c12 (stereo not drawn) [Compound 3m, 1-Cyclopropyl-7-{1-(2E)-(3,7-dimethyl-octa-2,6-dienoyl)-octahydro-pyrrolo[3,4-b]pyridin-6-yl}-6-fluoro-8-methoxy-4-oxo-1,4-dihydro-quinoline-3-carboxylic acid] | 26.7 ± 1.4 | 3.0 | 38.2 ± 4.1 | 2.1 | 23.5 ± 4.7 | 3.5 | 81.2 ± 2.6 | 8 (≈ 14.5 µM) | 8 (≈ 14.5 µM) | 8 (≈ 14.5 µM) | 8 (≈ 14.5 µM) | 16 (≈ 29 µM) | 8 (≈ 14.5 µM) | 128 (≈ 232 µM) | > 64 | 16 (≈ 29 µM) | 8 (≈ 14.5 µM) | 16 (≈ 29 µM) | 8 (≈ 14.5 µM) | 8 (≈ 14.5 µM) | MIC [8]: 8 µg/mL (≈ 14.5 µM); MIC [9]: 16 µg/mL (≈ 29 µM); MIC (M. tuberculosis H37Rv): 128 µg/mL (≈ 232 µM); MIC [10]: 128 µg/mL (≈ 232 µM); IC50 [11]: > 116 µM; MIC [12]: 8 to 32 µg/mL (≈ 14.5 to 58 µM); MIC (M. tuberculosis strains): ≥ 128 µg/mL; IC50 (S. aureus DNA gyrase): > 116 µM |
| CC/C=C\C/C=C\C/C=C\CCCCCCCC(=O)N1CCCC2CN(c3c(F)cc4c(=O)c(C(=O)O)cn(C5CC5)c4c3OC)CC21 (stereo not drawn) [Compound 6m, 1-Cyclopropyl-6-fluoro-8-methoxy-7-{1-(9Z,12Z,15Z)-octadeca-9,12,15-trienoyl-octahydro-pyrrolo[3,4-b]pyridin-6-yl}-4-oxo-1,4-dihydro-quinoline-3-carboxylic acid] | 16.7 ± 3.1 | 5.8 | 15.6 ± 2.6 | 6.2 | 14.4 ± 2.4 | 6.7 | 96.6 ± 5.5 | 16 (≈ 24.2 µM) | 32 (≈ 48.3 µM) | 16 (≈ 24.2 µM) | 16 (≈ 24.2 µM) | 32 (≈ 48.3 µM) | 32 (≈ 48.3 µM) | 256 (≈ 387 µM) | > 512 | 256 (≈ 387 µM) | 64 (≈ 96.7 µM) | 64 (≈ 96.7 µM) | 64 (≈ 96.7 µM) | 256 (≈ 387 µM) | MIC [8]: 32 µg/mL (≈ 48.3 µM); MIC [9]: 128 µg/mL (≈ 193 µM); MIC (M. tuberculosis H37Rv): 256 µg/mL (≈ 387 µM); MIC ([10]; 2 weeks of treatment): 128 µg/mL (≈ 193 µM); MIC [12]: 8 to 32 µg/mL (≈ 12.1 to 48.3 µM); MIC (M. tuberculosis strains; summary over strains): ≥ 128 µg/mL |
